This note sets out measurements from patent USRE47689E1, “Compounds for treating spinal muscular atrophy” (PTC Therapeutics, Inc., priority 2011, dated 2019).

For experiment [1], the system named is SMN2 minigene (full length SMN2 minigene mRNA containing SMN2 exon 7). In words: SMN2 minigene mRNA splicing RT-qPCR assay in cultured cells. To be noted: for EC (1.5-fold): Homo sapiens, HEK293-H, read-out: EC1.5x for production of full length SMN2 mRNA. The class given is cell-based, human. An outline of the steps:
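Read-out: full-length (exon 7-included) SMN2 minigene mRNA by multiplex RT-qPCR with GAPDH, efficiency-corrected (1+E)^−Ct, GAPDH-normalized and divided by vehicle. Stably transfected HEK293H cells, 24 h compound exposure, duplicates per concentration. Value is EC1.5x, reported as star ranges.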

Another experiment concerns Smn protein. In words: Smn protein assay in cultured cells (SMN HTRF). The class given is cell-based, human. As to conditions: for EC1.5x (concentration giving 1.5-fold Smn protein increase): read-out: EC1.5x for Smn protein expression. The method, boiled down: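 Lysates in RIPA with protease inhibitors are incubated overnight at room temperature with HTRF anti-SMN antibodies. EC1.5x is derived from fold increase in ΔF over vehicle.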
(In general: TR-FRET usually uses a lanthanide donor and a delayed reading to cut background.)

Where [2] appears, read: HEK293H cells stably transfected with SMN2-A minigene, 24 hours, 7-point concentration curve, 1.5-fold relative to vehicle-treated cells.
Where [3] appears, read: SMA Type 1 patient fibroblast cells (GM03813), 48 hours, 7-point concentration curve, SMN HTRF, concentration producing 1.5 times Smn protein vs DMSO vehicle control.
[4] abbreviates: SMA patient fibroblast cells, 48 hours, 7-point concentration data, fold increase relative to vehicle control (SMN HTRF).

Structures can show the parent of a compound that is named as a salt. Where two headings read alike, the source gives them in different places.

Turning to `Cc1cn2cc(-c3cc4ccc(N5CCN[C@@H](C(C)C)C5)cc4oc3=O)nc2c(C)n1` [Compound 808, 3-(6,8-dimethylimidazo[1,2-a]pyrazin-2-yl)-7-[(3S)-3-(propan-2-yl)piperazin-1-yl]-2H-chromen-2-one], in experiment [1] (setting [2]), the EC (1.5-fold) was less than 0.1 µM. Moreover, the EC1.5x (concentration giving 1.5-fold Smn protein increase) in the experiment with Smn protein (setting [3]) was less than 300 nM. In addition, the “maximum fold (Fold) increase of Smn protein” value (from here on “maximum fold (Fold) increase”) in the experiment on Smn protein (setting [4]) is “**** (fold increase between >1.5 and ≤1.65)”.
In the case of `C[C@H]1CN(c2ccc3cc(-c4cc5cnccc5s4)c(=O)oc3c2)CCN1` [Compound 629, 7-[(3S)-3-methylpiperazin-1-yl]-3-(thieno[3,2-c]pyridin-2-yl)-2H-chromen-2-one], the EC (1.5-fold) in experiment [1] (setting [2]) was in the range of 0.3 to 1 µM. Also, the “maximum fold (Fold) increase” value with Smn protein (setting [4]) is “* (maximum fold increase of ≤1.2)”.
Turning to `CCc1nc(C)cn2cc(-c3cc4ccc(N5CCNCC5)cc4oc3=O)nc12` [Compound 824, 3-(8-ethyl-6-methylimidazo[1,2-a]pyrazin-2-yl)-7-(piperazin-1-yl)-2H-chromen-2-one], in experiment [1] (setting [2]), the EC (1.5-fold) was less than 0.1 µM. The EC1.5x (concentration giving 1.5-fold Smn protein increase) with Smn protein (setting [3]) was less than 300 nM. The “maximum fold (Fold) increase” value with Smn protein (setting [4]) is “**** (fold increase between >1.5 and ≤1.65)”.
For `Cc1cccn2cc(-c3cc4ccc(N5C[C@H](C)NC[C@H]5C)cc4oc3=O)nc12` [Compound 166, 7-[(2R,5S)-2,5-dimethylpiperazin-1-yl]-3-(8-methylimidazo[1,2-a]pyridin-2-yl)-2H-chromen-2-one], the EC (1.5-fold) in experiment [1] (setting [2]) lay in the range of 1 to 3 µM. The “maximum fold (Fold) increase” value with Smn protein (setting [4]) is “** (fold increase between >1.2 and ≤1.35)”.
Turning to `Cc1nccn2cc(-c3cc4ccc(N5CCN[C@H](C)C5)cc4oc3=O)nc12` [Compound 559, 3-(8-methylimidazo[1,2-a]pyrazin-2-yl)-7-[(3R)-3-methylpiperazin-1-yl]-2H-chromen-2-one], in experiment [1] (setting [2]), the EC (1.5-fold) is 0.3 to 1 µM. Further, the “maximum fold (Fold) increase” value in the experiment with Smn protein (setting [4]) was “*** (fold increase between >1.35 and ≤1.5)”.
Consider `CN1CCN(C(=O)c2ccc3cc(-c4nc5c(Cl)cccc5s4)c(=O)oc3c2)CC1` [Cpd 28, 3-(4-chloro-1,3-benzothiazol-2-yl)-7-[(4-methylpiperazin-1-yl)carbonyl]-2H-chromen-2-one], for which the EC (1.5-fold) in experiment [1] (setting [2]) lay within 3 to 30 µM. Besides, the “maximum fold (Fold) increase” value with Smn protein (setting [4]) is “* (maximum fold increase of ≤1.2)”.
For the compound “7-(1,4-diazepan-1-yl)-3-(6-methylimidazo[1,2-a]pyrazin-2-yl)-2H-chromen-2-one [Compound 477]”, the “EC1.5x for production of full length SMN2 mRNA” value in experiment [1] (setting [2]) is “***** (EC1.5x≤0.1 μM)”. Also, the EC1.5x (concentration giving 1.5-fold Smn protein increase) in the experiment with Smn protein (setting [3]) is less than 300 nM. The “maximum fold (Fold) increase” value in the experiment with Smn protein (setting [4]) is reported as “***** (fold increase >1.65)”.
In the case of `O=c1oc2cc(N3CCNCC3)ccc2cc1-c1ccc2nccn2c1` [Compound 980, 3-(imidazo[1,2-a]pyridin-6-yl)-7-(piperazin-1-yl)-2H-chromen-2-one], the EC (1.5-fold) in experiment [1] (setting [2]) was in the range of 0.3 to 1 µM. Also, in the experiment on Smn protein (setting [4]), the “maximum fold (Fold) increase” value was “*** (fold increase between >1.35 and ≤1.5)”.
As to `CSc1nccn2cc(-c3cc4ccc(N5CCCN(C)CC5)cc4oc3=O)nc12` [Compound 401, 7-(4-methyl-1,4-diazepan-1-yl)-3-[8-(methylsulfanyl)imidazo[1,2-a]pyrazin-2-yl]-2H-chromen-2-one], in experiment [1] (setting [2]), the EC (1.5-fold) lay in the range of 1 to 3 µM. The “maximum fold (Fold) increase” value in the experiment with Smn protein (setting [4]) was “* (maximum fold increase of ≤1.2)”.
In the case of `O=c1oc2cc(N3CCNCC3)ccc2cc1-c1nc2ncccc2o1` [Compound 110, 3-([1,3]oxazolo[4,5-b]pyridin-2-yl)-7-(piperazin-1-yl)-2H-chromen-2-one hydrochloride], the EC (1.5-fold) in experiment [1] (setting [2]) fell in the range of 3 to 30 µM. Moreover, in the experiment on Smn protein (setting [4]), the “maximum fold (Fold) increase” value is “** (fold increase between >1.2 and ≤1.35)”.
Regarding `O=C(O)C(F)(F)F.O=c1oc2cc(N3CCNCC3)ccc2cc1-c1nc2cccc(C(F)(F)F)c2o1` [Compound 2, 7-(piperazin-1-yl)-3[7-(trifluoromethyl)-1,3-benzoxazol-2-yl]-2H-chromen-2-one trifluoroacetate], in experiment [1] (setting [2]), the EC (1.5-fold) fell in the range of 0.3 to 1 µM. Besides, the “maximum fold (Fold) increase” value in the experiment with Smn protein (setting [4]) is given as “* (maximum fold increase of ≤1.2)”.
As for `CC(C)c1nccc(-c2cc3ccc(N4CCNCC4)cc3oc2=O)n1.Cl` [Compound 279, 7-(piperazin-1-yl)-3-[2-(propan-2-yl)pyrimidin-4-yl]-2H-chromen-2-one hydrochloride], in experiment [1] (setting [2]), the EC (1.5-fold) fell in the range of 1 to 3 µM. The “maximum fold (Fold) increase” value in the experiment on Smn protein (setting [4]) was “* (maximum fold increase of ≤1.2)”.
Take `O=c1oc2cc(N3CCNCC3)ccc2cc1-c1cc(C(F)(F)F)ccn1` [Compound 76, 7-(piperazin-1-yl)-3-[4-(trifluoromethyl)pyridin-2-yl]-2H-chromen-2-one]: the EC (1.5-fold) in experiment [1] (setting [2]) is 1 to 3 µM. Further, in the experiment on Smn protein (setting [4]), the “maximum fold (Fold) increase” value is reported as “* (maximum fold increase of ≤1.2)”.
On to `Cc1cn2cc(-c3cc4ccc(N5CCN[C@H](C)C5)cc4oc3=O)cnc2n1` [Compound 650, 3-(2-methylimidazo[1,2-a]pyrimidin-6-yl)-7-[(3R)-3-methylpiperazin-1-yl]-2H-chromen-2-one], for which the EC (1.5-fold) in experiment [1] (setting [2]) was less than 0.1 µM. Moreover, the EC1.5x (concentration giving 1.5-fold Smn protein increase) in the experiment on Smn protein (setting [3]) lay in the range of 300 to 1000 nM. Further, the “maximum fold (Fold) increase” value with Smn protein (setting [4]) is “**** (fold increase between >1.5 and ≤1.65)”.
`CC(=O)O.Cc1ccn2cc(-c3cc4ccc(N(C)C5CCN(Cc6ccccc6)C5)cc4oc3=O)nc2n1` (stereo not shown) [Compound 377, 7-[(1-benzylpyrrolidin-3-yl)(methyl)amino]-3-(7-methylimidazo[1,2-a]pyrimidin-2-yl)-2H-chromen-2-one acetate]: in experiment [1] (setting [2]), the EC (1.5-fold) fell in the range of 0.3 to 1 µM. Further, the “maximum fold (Fold) increase” value in the experiment on Smn protein (setting [4]) is listed as “* (maximum fold increase of ≤1.2)”.
Regarding `Cc1cn2cc(-c3cc4ccc(C5=CCN(C)CC5)cc4oc3=O)nc2c(C)n1` [Compound 800, 3-(6,8-dimethylimidazo[1,2-a]pyrazin-2-yl)-7-(1-methyl-1,2,3,6-tetrahydropyridin-4-yl)-2H-chromen-2-one], in experiment [1] (24 h), the EC (1.5-fold) was less than 0.1 µM. Besides, in the experiment on Smn protein, the “maximum fold (Fold) increase” value was “***** (key: *: maximum fold increase of ≤1.2; **: fold increase between >1.2 and ≤1.35; ***: fold increase between >1.35 and ≤1.5; ****: fold increase between >1.5 and ≤1.65; *****: fold increase >1.65)”; the EC1.5x (concentration giving 1.5-fold Smn protein increase) is less than 300 nM.
For the compound `Cc1cn2cc(-c3cc4ccc(N5CC(CN)C5)cc4oc3=O)nc2c(C)n1` [Compound 963, 7-[3-(aminomethyl)azetidin-1-yl]-3-(6,8-dimethylimidazo[1,2-a]pyrazin-2-yl)-2H-chromen-2-one], the EC (1.5-fold) in experiment [1] (setting [2]) fell in the range of 0.3 to 1 µM. In the experiment on Smn protein (setting [4]), the “maximum fold (Fold) increase” value was “*** (fold increase between >1.35 and ≤1.5)”.
With `CCN1CCN(c2ccc3cc(-c4cn5cc(C)nc(C)c5n4)c(=O)oc3c2)C[C@H]1C` [Compound 679, 3-(6,8-dimethylimidazo[1,2-a]pyrazin-2-yl)-7-[(3R)-4-ethyl-3-methylpiperazin-1-yl]-2H-chromen-2-one], the EC (1.5-fold) in experiment [1] (setting [2]) was less than 0.1 µM. Moreover, the EC1.5x (concentration giving 1.5-fold Smn protein increase) in the experiment with Smn protein (setting [3]) is less than 300 nM. In addition, the “maximum fold (Fold) increase” value with Smn protein (setting [4]) is reported as “***** (fold increase >1.65)”.
`Cc1cn2cc(-c3cc4ccc(N5CCCN(C(C)C)CC5)cc4oc3=O)cc2cn1` [Compound 753, 3-(3-methylpyrrolo[1,2-a]pyrazin-7-yl)-7-[4-(propan-2-yl)-1,4-diazepan-1-yl]-2H-chromen-2-one]: in experiment [1] (setting [2]), the EC (1.5-fold) is less than 0.1 µM. In addition, the EC1.5x (concentration giving 1.5-fold Smn protein increase) with Smn protein (setting [3]) was in the range of 1000 to 3000 nM. Also, the “maximum fold (Fold) increase” value in the experiment on Smn protein (setting [4]) is “*** (fold increase between >1.35 and ≤1.5)”.
With `O=c1oc2cc(N3CCN4CCC[C@H]4C3)ccc2cc1-c1ccc2nccn2c1` [Compound 979, 7-[(8aS)-hexahydropyrrolo[1,2-a]pyrazin-2(1H)-yl]-3-(imidazo[1,2-a]pyridin-6-yl)-2H-chromen-2-one], the EC (1.5-fold) in experiment [1] (setting [2]) lay in the range of 1 to 3 µM. Moreover, the “maximum fold (Fold) increase” value with Smn protein (setting [4]) was “** (fold increase between >1.2 and ≤1.35)”.
Turning to `COc1ccc(-c2cc3ccc(N4CCN(C)CC4)cc3oc2=O)cc1OC` [Compound 317, 3-(3,4-dimethoxyphenyl)-7-(4-methylpiperazin-1-yl)-2H-chromen-2-one], the EC (1.5-fold) in experiment [1] (setting [2]) was in the range of 3 to 30 µM. In addition, the “maximum fold (Fold) increase” value in the experiment with Smn protein (setting [4]) is “* (maximum fold increase of ≤1.2)”.
Take `Cc1cn2cc(-c3cc4ccc(N5CCN[C@@H](C)C5)cc4oc3=O)cc(F)c2n1` [Compound 984, 3-(8-fluoro-2-methylimidazo[1,2-a]pyridin-6-yl)-7-[(3S)-3-methylpiperazin-1-yl]-2H-chromen-2-one]: the EC (1.5-fold) in experiment [1] (setting [2]) was less than 0.1 µM. Besides, in the experiment on Smn protein (setting [3]), the EC1.5x (concentration giving 1.5-fold Smn protein increase) is less than 300 nM. For the same compound, the “maximum fold (Fold) increase” value with Smn protein (setting [4]) is on record as “***** (fold increase >1.65)”.
With `CCCN1CCC(c2ccc3cc(-c4cn5cc(C)ncc5n4)c(=O)oc3c2)CC1` [Compound 887, 3-(6-methylimidazo[1,2-a]pyrazin-2-yl)-7-(1-propylpiperidin-4-yl)-2H-chromen-2-one], the EC (1.5-fold) in experiment [1] (setting [2]) is less than 0.1 µM. The EC1.5x (concentration giving 1.5-fold Smn protein increase) in the experiment with Smn protein (setting [3]) was less than 300 nM. The “maximum fold (Fold) increase” value in the experiment on Smn protein (setting [4]) is listed as “***** (fold increase >1.65)”.
